Test results taken from the Kinase Knowledgebase extract (Sharma et al. 2016).
pIC50: −log10 of the molar value.

Target: MAPK14 (human) (UniProt Q16539)
Assay: Inhibition of MAPK14 Kinase Activity

MAPK14 (human), sequence (Q16539 whole entry, looked up): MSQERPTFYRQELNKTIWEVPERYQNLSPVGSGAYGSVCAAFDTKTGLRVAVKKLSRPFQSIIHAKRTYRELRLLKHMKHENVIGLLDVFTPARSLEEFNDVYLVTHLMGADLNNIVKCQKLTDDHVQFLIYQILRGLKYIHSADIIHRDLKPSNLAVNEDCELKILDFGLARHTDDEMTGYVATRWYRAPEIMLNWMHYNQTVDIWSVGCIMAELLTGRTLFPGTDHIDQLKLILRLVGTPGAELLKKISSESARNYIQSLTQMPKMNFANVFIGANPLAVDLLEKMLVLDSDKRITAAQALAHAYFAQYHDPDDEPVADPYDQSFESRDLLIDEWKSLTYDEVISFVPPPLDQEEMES

| pIC50 | Structure (SMILES) |
| --- | --- |
| > 5.00 | CS(=O)(=O)Nc1nc(-c2ccccc2F)c2ccc(=O)n(-c3c(F)cccc3F)c2n1 |
| > 5.00 | Cc1cc(F)ccc1-c1nc(N[C@H]2CC[C@H](O)CC2)nc2c1ccc(=O)n2-c1ccccc1C |
| > 5.00 | CSc1nc(-c2ccccc2F)c2ccc(=O)n(C(C)C)c2n1 |
| > 5.00 | CC(C)n1c(=O)ccc2c(-c3ccccc3F)nc(NS(C)(=O)=O)nc21 |
| > 5.00 | Cc1cc(F)ccc1-c1nc(N[C@@H](C)CO)nc2c1ccc(=O)n2-c1ccccc1F |
| > 5.00 | Cc1cc(F)ccc1-c1nc(NC(C)(CO)CO)nc2c1ccc(=O)n2-c1ccccc1F |
| > 5.00 | CSc1nc(-c2ccccc2F)c2ccc(=O)n(-c3c(F)cccc3F)c2n1 |
| > 5.00 | CC(=O)NCCOc1nc(-c2ccc(F)cc2C)c2ccc(=O)n(-c3c(F)cccc3F)c2n1 |
| > 5.00 | Cc1cc(F)ccc1-c1nc(NCCNC(=O)Nc2cccc(F)c2)nc2c1ccc(=O)n2-c1c(F)cccc1F |
| > 5.00 | Cc1cc(F)ccc1-c1nc(S(C)(=O)=O)nc2c1ccc(=O)n2-c1c(C)cccc1C |

Further lines, the compound ahead of its results:

| Structure (SMILES) | pIC50 |
| --- | --- |
| Cc1cc(F)ccc1-c1nc(NCCO)nc2c1ccc(=O)n2-c1ccccc1C | > 5.00 |
| Cc1cc(F)ccc1-c1nc(S(C)(=O)=O)nc2c1ccc(=O)n2-c1ccccc1C | > 5.00 |
| Cc1cc(F)ccc1-c1nc(N(C)S(C)(=O)=O)nc2c1ccc(=O)n2C(C)C | > 5.00 |
| Cc1cc(CNc2nc(-c3ccc(F)cc3C)c3ccc(=O)n(-c4c(F)cccc4F)c3n2)on1 | > 5.00 |
| Cc1cc(F)ccc1-c1nc(OCCN)nc2c1ccc(=O)n2-c1c(F)cccc1F | > 5.00 |
| CCN(CC)CCNc1nc(-c2ccc(F)cc2C)c2ccc(=O)n(-c3c(F)cccc3F)c2n1 | > 5.00 |
| CNc1nc(-c2ccc(F)cc2C)c2ccc(=O)n(-c3c(F)cccc3F)c2n1 | > 5.00 |
| CCNC(=O)CNc1nc(-c2ccc(F)cc2C)c2ccc(=O)n(-c3c(F)cccc3F)c2n1 | > 5.00 |
| CCC(CC)n1c(=O)ccc2c(-c3ccccc3Cl)nc(N[C@H](C)CO)nc21 | > 5.00 |
| CSc1nc(-c2ccccc2F)c2ccc(=O)[nH]c2n1 | > 5.00 |
